Experimental data reported in US20100075978A1, “SULFONAMIDE DERIVATIVES AS BRADYKININ ANTAGONISTS” (priority 2006, published 2010).
Where a name gives a salt, the structure may show the parent alone. Read-outs that look alike come from different tables or passages of the source.

Assays:
[1] = biological target: T1, recombinant human B1 receptors (Homo sapiens, UniProt P46663); assay: Functional assay: cytosolic calcium ion concentration measured with plate reader fluorimeter in CHO-B1 cells, agonist LysDABK; format: cell-based
T1 construct: host or cells: CHO (CHO-B1)
T1 sequence (P46663 1-353): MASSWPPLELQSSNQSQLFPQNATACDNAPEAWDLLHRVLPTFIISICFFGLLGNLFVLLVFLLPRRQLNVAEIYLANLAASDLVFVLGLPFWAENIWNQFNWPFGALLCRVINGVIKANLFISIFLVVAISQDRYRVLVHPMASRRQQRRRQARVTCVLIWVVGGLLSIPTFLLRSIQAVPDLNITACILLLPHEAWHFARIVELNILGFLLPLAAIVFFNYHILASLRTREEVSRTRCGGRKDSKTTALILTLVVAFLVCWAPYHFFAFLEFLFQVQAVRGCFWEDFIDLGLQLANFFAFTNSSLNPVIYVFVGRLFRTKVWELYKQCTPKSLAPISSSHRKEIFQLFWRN
Experimental: Assessment of Antagonist Potency at B1 and B2 Receptors In Vitro by Measurement of Cytosolic Calcium Ion Concentration with a Plate Reader Fluorimeter in Cells Expressing Recombinant Human B1 or B2 Receptors
Chinese hamster ovary (CHO) cells stably expressing recombinant human B1 (CHO-B1, Euroscreen) or B2 (CHO-B2, Perkin-Elmer) receptors were cultured in Dulbecco's Modified Eagle's Medium (DMEM) containing 10% Fetal Calf Serum (FCS), 100 U/ml penicillin, 0.1 mg/ml streptomycin, 0.25 μg/ml amphotericin B, 1% Minimum Essential Medium Eagle (MEM), non essential amino acid solution, 600 μg/ml G418, 1% pyruvate (for the B2 cell line). Cells were kept at 37° C. in a humidified incubator in an atmosphere of 5% CO2/95% air and were passaged 1:4 three times a week. Cells were plated at 1.5-2.5×10^4 cell/well on standard 96-well microplates, measurements of cytosolic calcium ion concentration ([Ca^2+]i) were carried out 1-2 days after cell plating.
Measurements of [Ca^2+]i were carried out on CHO-B1 and CHO-B2 cells stably expressing human B1 and B2 receptors, respectively. Cells were grown in standard 96-well microplates and before the measurement were loaded with a fluorescent Ca^2+-sensitive dye, fluo-4/AM (2 μM): after removing the culture medium the dye was added to the cells (dissolved in assay buffer: 145 mM NaCl, 5 mM KCl, 2 mM MgCl2, 2 mM CaCl2, 10 mM HEPES, 20 mM D-glucose, 2 mM probenecid, 100 μl/well) and cells were incubated at 37° C. in a humidified incubator in an atmosphere of 5% CO2/95% air for 40-120 min. To stop dye loading cells were washed twice with assay buffer. After washing, various concentrations of the test compounds (diluted in extracellular medium from a DMSO stock solution, final DMSO concentration was <0.1%) or buffer were added to each well depending on the experimental setup. After incubation at 37° C. for 20-25 min. baseline and agonist-evoked changes of [Ca^2+]i were measured column by column with a plate reader fluorimeter (Fluoroskan Ascent, Labsystems). Excitation and detection of emission was carried out from the bottom of the plate. Filters used for Fluo-4: excitation filter—485 nm, emission filter—538 nm. The whole measurement process was performed at 37° C. and was controlled by custom software. Inhibitory potency of the test compounds was assessed by measuring the reduction in the agonist-evoked [Ca^2]i-elevation in the presence of different concentrations of the compounds. The agonists were LysDABK for CHO-B1, and bradykinin for CHO-B2 cells. Agonists were applied at an EC80 concentration, the EC80-values were derived from daily determined dose-response curves. Fluorescence data were expressed as ΔF/F (fluorescence change normalized to baseline). All treatments on a single plate were measured in multiple wells. Data from all wells with the same treatment were averaged and the average values were used for analysis. Inhibitory potency of a compound at a single concentration point was expressed as percent inhibition of the control agonist response. Sigmoidal concentration-inhibition curves were fitted to the data (derived from at least three independent experiments) and IC50-values were determined as the concentration that produces half of the maximal inhibition caused by the compound.

[2] = biological target: T2, human recombinant bradykinin B1 receptor (Homo sapiens, UniProt P46663); assay: Human recombinant bradykinin B1 receptor binding
T2 construct: purchased Euroscreen ES-091; host or cells: CHO cells
T2 sequence (P46663 1-353): T1 sequence (P46663 1-353)
Experimental: 1. Human Recombinant Bradykinin B1 Receptor Binding
Binding assays were carried out on human recombinant bradykinin) receptors (expressed in CHO cells) according to the Euroscreen Technical Data Sheet (Cat.No.:ES-091). 20 μg protein/tube was incubated with [3,4-prolyl-3,4-^3H(N)]-[Des-Arg^10] Kallidin as radioligand. Non specific binding was determined in the presence of 10 μM Lys-des-Arg^9-Bradykinin. The final incubation volume was 250 μl. Samples were incubated for 15 min. at 25° C. then were rapidly vacuum filtered through GF/B filters presoaked for at least 1 h in 0.5% PEI. Radioactivity was determined by liquid scintillation spectroscopy.

[3] = CHO-B1 cells, LysDABK at EC80, [Ca2+]i, read-out: B1 func.
[4] = radioligand [3H]-[Des-Arg10] Kallidin, CHO cell membranes, read-out: B1 binding

SMILES	IC50 [1, 3] [nM]	Ki [2, 4] [nM]	IC50 ([1]; reference compounds, functional test, read-out: IC50) [nM]	Ki ([2]; reference compounds, binding test, read-out: Ki) [nM]
O=C(NCCN1CCN(c2cnccn2)CC1)c1ccc(S(=O)(=O)Nc2ccccc2Oc2ccc(Br)cc2Cl)cc1 [Example 159, 4-[2-(4-Bromo-2-chloro-phenoxy)-phenylsulfamoyl]-N-[2-(2,3,5,6-tetrahydro-[1,2′]bipyrazinyl-4-14)-ethyl]-benzamide]	20 to 100	20 to 100	–	–
CN1CCN(C(=O)C2CCN(S(=O)(=O)c3ccc(NCC(c4ccccc4)c4ccccc4)c(C(=O)N4CCOCC4)c3)CC2)CC1 [NVP-SAA164, 4-{2-[(2,2-diphenyl-ethyl)-amino]-5-{4-[4-[(4-methyl-1-piperazinyl)-carbonyl]-1-piperidinyl]-sulfonyl}-benzoyl}-morfoline, reference compound]	–	–	33	8
O=C(NCCN1CCN(c2ccccn2)CC1)c1ccc(S(=O)(=O)Nc2ccccc2Oc2ccc(Cl)cc2Cl)cc1 [Example 20, 4-[2-(2,4-Dichloro-phenoxy)-phenylsulfamoyl]-N-[2-(4-pyridin-2-yl-piperazin-1-yl)-ethyl]-benzamide trifluoroacetate]	20 to 100	20 to 100	–	–
O=C(NCCN1CCN(c2ccncc2)CC1)c1cccc(S(=O)(=O)Nc2ccccc2Oc2ccc(Cl)cc2Cl)c1 [Example 10, 3-[2-(2,4-Dichloro-phenoxy)-phenylsulfamoyl]-N-[2-(4-pyridin-4-yl-piperazin-1-yl)-ethyl]-benzamide dihydrochloride]	20 to 100	< 20	–	–
O=C(N[C@H]1CC[C@H](CCN2CCCC2)CC1)c1ccc(S(=O)(=O)Nc2ccccc2Oc2ccc(Cl)c(Cl)c2)cc1 [Example 64, trans-4-[2-(3,4-Dichloro-phenoxy)-phenylsulfamoyl]-N-[4-(2-pyrrolidin-1-yl-ethyl)-cyclohexyl]-benzamide]	20 to 100	20 to 100	–	–
N=C(N)NCc1ccc(CNC(=O)c2ccc(S(=O)(=O)Nc3ccccc3Oc3ccc(Br)cc3)cc2)cc1 [Example 23, 4-[2-(4-Bromo-phenoxy)-phenylsulfamoyl]-N-(4-guanidinomethyl-benzyl)-benzamide hydrochloride]	100 to 500	20 to 100	–	–
O=C(CCNC(=O)c1ccc(S(=O)(=O)Nc2ccccc2Oc2ccc(Cl)cc2Cl)cc1)NCC1CCNCC1 [Example 37, 4-[2-(2,4-Dichloro-phenoxy)-phenylsulfamoyl]-N-{2-[(piperidin-4-ylmethyl)-carbamoyl]-ethyl}-benzamide acetate/hydrochloride mixed salt]	20 to 100	20 to 100	–	–
O=C(NCCc1ccc(C2=NCCN2)cc1)c1ccc(S(=O)(=O)Nc2ccccc2Oc2ccc(Br)cc2Cl)cc1 [Example 22, 4-[2-(4-Bromo-2-chloro-phenoxy)-phenylsulfamoyl]-N-{2-[4-(4,5-dihydro-1H-imidazol-2-yl)-phenyl]-ethyl}-benzamide]	< 20	< 20	–	–
O=C(NCCCN1CCC(N2CCCCC2)CC1)c1ccc(S(=O)(=O)Nc2ccccc2Oc2ccc(Cl)cc2Cl)cc1 [Example 3, N-(3-[1,4′]Bipiperidinyl-1′-yl-propyl)-4-[2-(2,4-dichloro-phenoxy)-phenylsulfamoyl]-benzamide]	< 20	< 20	–	–
O=C(NCCCCC1CCNCC1)c1ccc(S(=O)(=O)Nc2ccccc2Oc2ccc(Br)cc2Cl)cc1 [Example 167, 4-[2-(4-Bromo-2-chloro-phenoxy)-phenylsulfamoyl]-N-(4-piperidin-4-yl-butyl)-benzamide hydrochloride]	20 to 100	20 to 100	–	–
Cc1ccnc(N2CCN(CCNC(=O)c3ccc(S(=O)(=O)Nc4ccccc4Oc4ccc(Cl)cc4Cl)cc3)CC2)c1 [Example 54, 4-[2-(2,4-Dichloro-phenoxy)-phenylsulfamoyl]-N-{2-[4-(4-methyl-pyridin-2-yl)-piperazin-1-yl]-ethyl}-benzamide]	20 to 100	20 to 100	–	–
O=C(Nc1ccc(N2CCC(N3CCCCC3)CC2)cc1)c1ccc(S(=O)(=O)Nc2ccccc2Oc2ccc(Cl)cc2Cl)cc1 [Example 8, N-(4-[1,4′]Bipiperidinyl-1′-yl-phenyl)-4-[2-(2,4-dichloro-phenoxy)-phenylsulfamoyl]-benzamide]	20 to 100	< 20	–	–
